The record followed here is patent publication US12180193B2, “Accelerating fibrosarcoma protein degrading compounds and associated methods of use” (Arvinas Operations, Inc., priority 2020, dated 2024).

For one experiment, the target named is T1, BRAF V600E (Homo sapiens, UniProt P15056, V600E).
T1 construct: expressed in transfected cells
Briefly: Cellular assay of target protein degradation, T-Rex 293 cells stably transfected with HA-BRAF_V600E (HA immunofluorescence, high content imaging). As to conditions: T-Rex 293 HA-BRAF V600E; for DC50: half maximal degradation, read-out: BRaf V600E DC50; for Dmax: maximum degradation observed. The format is cell-based. The gist of the method:
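Read-out is anti-HA immunofluorescence quantified by high-content imaging, giving half-maximal degradation concentration (DC50) and maximum degradation (Dmax, percent of control). Cells expressed the construct under 1 ng/mL doxycycline and received compound (1 μM to 0.1 nM final, 0.1% DMSO) for 24 h at 37 °C.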

The target of a further experiment is T2, BRAF G466V (Homo sapiens, UniProt P15056, G466V).
T2 construct: expressed in transfected cells
Briefly: Cellular assay of target protein degradation, T-Rex 293 cells stably transfected with HA-BRAF G466V (HA immunofluorescence, high content imaging). It is filed as cell-based. The conditions noted are these: T-Rex 293 HA-BRAF G466V; for DC50: half maximal degradation, read-out: BRaf G466V DC50; for Dmax: maximum degradation observed. In outline: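 First, stably transfected T-Rex 293 cells were plated with 0.75 ng/mL doxycycline and grown for 24 hours. Next, compound (final 30 nM to 3 pM, 0.1% DMSO) was added for another 24 hours at 37° C. Finally, cells were fixed, stained for HA and imaged.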

T2 sequence (P15056 whole entry G466V): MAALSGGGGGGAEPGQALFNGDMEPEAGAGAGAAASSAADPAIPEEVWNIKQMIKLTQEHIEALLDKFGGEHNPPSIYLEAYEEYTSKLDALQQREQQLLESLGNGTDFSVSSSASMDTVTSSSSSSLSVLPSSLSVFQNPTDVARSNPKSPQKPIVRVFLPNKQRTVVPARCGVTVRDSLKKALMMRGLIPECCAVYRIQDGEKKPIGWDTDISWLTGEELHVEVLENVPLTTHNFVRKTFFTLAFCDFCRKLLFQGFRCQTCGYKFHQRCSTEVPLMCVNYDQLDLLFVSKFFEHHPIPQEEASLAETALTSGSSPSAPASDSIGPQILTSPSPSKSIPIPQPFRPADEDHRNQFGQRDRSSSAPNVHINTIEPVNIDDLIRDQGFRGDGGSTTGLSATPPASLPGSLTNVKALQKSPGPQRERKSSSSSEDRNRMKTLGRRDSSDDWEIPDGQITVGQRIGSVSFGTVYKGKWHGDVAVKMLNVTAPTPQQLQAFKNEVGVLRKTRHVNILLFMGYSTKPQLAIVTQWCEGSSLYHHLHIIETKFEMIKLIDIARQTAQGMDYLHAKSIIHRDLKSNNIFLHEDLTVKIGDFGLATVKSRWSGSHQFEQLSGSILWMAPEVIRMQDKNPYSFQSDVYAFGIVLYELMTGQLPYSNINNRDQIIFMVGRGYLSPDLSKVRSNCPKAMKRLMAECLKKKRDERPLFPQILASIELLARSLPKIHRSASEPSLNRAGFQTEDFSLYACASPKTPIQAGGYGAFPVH
T1 sequence (P15056 whole entry V600E): as the sequence (P15056 whole entry G466V) above, with V466G, V600E counted along it

The term DC50 denotes the midpoint of the concentration-degradation curve. One may read the Dmax as the largest share of the target that was removed. A high value points to a fuller loss of target. Turning to `O=C1CC[C@@H](N2Cc3cc(N4CCC(CN5CCN(c6ccc(-c7cnc8[nH]cc(C(=O)c9c(F)ccc(NS(=O)(=O)N%10CC[C@@H](F)C%10)c9F)c8c7)cc6)CC5)CC4)c(F)cc3C2=O)C(=O)N1` [Compound 41, (3R)-N-{3-[5-(4-{4-[(1-{2-[(3R)-2,6-dioxopiperidin-3-yl]-6-fluoro-1-oxo-2,3-dihydro-1H-isoindol-5-yl}piperidin-4-yl)methyl]piperazin-1-yl}phenyl)-1H-pyrrolo[2,3-b]pyridine-3-carbonyl]-2,4-difluorophenyl}-3-fluoropyrrolidine-1-sulfonamide], the DC50 was above 500 nM at BRAF V600E and 1 to 10 nM on BRAF G466V. For the same compound, the Dmax on BRAF V600E is above 70%; on BRAF G466V, 35 to 70%.
Taken in the same sequence, the figures for `O=C1CCC(N2Cc3cc(N4CC5(CN(CC#Cc6ccc(-c7cnc8[nH]cc(C(=O)c9c(F)ccc(NS(=O)(=O)N%10CC[C@@H](F)C%10)c9F)c8c7)cc6)C5)C4)ccc3C2=O)C(=O)N1` (stereo partly drawn) [Compound 42, (3R)-N-(3-{5-[4-(3-{6-[2-(2,6-dioxopiperidin-3-yl)-1-oxo-2,3-dihydro-1H-isoindol-5-yl]-2,6-diazaspiro[3.3]heptan-2-yl}prop-1-yn-1-yl)phenyl]-1H-pyrrolo [2,3-b]pyridine-3-carbonyl}-2,4-difluorophenyl)-3-fluoropyrrolidine-1-sulfonamide] were 5 to 50 nM, 1 to 10 nM, 35 to 70% and 35 to 70%.
Take `O=C1CCC(N2Cc3cc(OC4CC5(C4)CN(c4ccc(-c6cnc7[nH]cc(C(=O)c8c(F)ccc(NS(=O)(=O)N9CC[C@@H](F)C9)c8F)c7c6)cc4)C5)ccc3C2=O)C(=O)N1` (stereo partly drawn) [Compound 43, (3R)-N-(3-{5-[4-(6-{[2-(2,6-dioxopiperidin-3-yl)-1-oxo-2,3-dihydro-1H-isoindol-5-yl]oxy}-2-azaspiro[3.3]heptan-2-yl)phenyl]-1H-pyrrolo[2,3-b]pyridine-3-carbonyl}-2,4-difluorophenyl)-3-fluoropyrrolidine-1-sulfonamide]: on BRAF V600E, the DC50 is 50 to 500 nM and the Dmax is 35 to 70%. At BRAF G466V, the 50% degradation concentration (DC50) lay within 10 to 30 nM and the Dmax lay within 35 to 70%.
Take `COc1cc(OCCN2CCN(CCOc3ccc(-c4cnc5[nH]cc(C(=O)c6c(F)ccc(NS(=O)(=O)N7CC[C@@H](F)C7)c6F)c5c4)cc3)CC2)cc2c1C(=O)N([C@H]1CCC(=O)NC1=O)C2` [Compound 44, (3R)-N-(3-{5-[4-(2-{4-[2-({2-[(3S)-2,6-dioxopiperidin-3-yl]-7-methoxy-1-oxo-2,3-dihydro-1H-isoindol-5-yl}oxy)ethyl]piperazin-1-yl}ethoxy)phenyl]-1H-pyrrolo[2,3-b]pyridine-3-carbonyl}-2,4-difluorophenyl)-3-fluoropyrrolidine-1-sulfonamide]: on BRAF V600E, the DC50 was in the range of 5 to 50 nM and the Dmax fell in the range of 35 to 70%. For the same compound, on BRAF G466V, the DC50 was below 1 nM and the maximal degradation (Dmax) lay within 35 to 70%.
As for `COc1cc(OCCN2CCN(CCOc3ccc(-c4cnc5[nH]cc(C(=O)c6c(F)ccc(NS(=O)(=O)N7CC[C@@H](F)C7)c6F)c5c4)cc3)CC2)cc2c1C(=O)N([C@@H]1CCC(=O)NC1=O)C2` [Compound 45, (3R)-N-(3-{5-[4-(2-{4-[2-({2-[(3R)-2,6-dioxopiperidin-3-yl]-7-methoxy-1-oxo-2,3-dihydro-1H-isoindol-5-yl}oxy)ethyl]piperazin-1-yl}ethoxy)phenyl]-1H-pyrrolo[2,3-b]pyridine-3-carbonyl}-2,4-difluorophenyl)-3-fluoropyrrolidine-1-sulfonamide], at BRAF V600E, the DC50 lay within 5 to 50 nM and the Dmax was 35 to 70%. Also, on BRAF G466V, the DC50 was below 1 nM and the Dmax lay in the range of 35 to 70%.
Consider `O=C1CCC(N2Cc3cc(C4CCN(CC5CCN(c6ncc(-c7cnc8[nH]cc(C(=O)c9c(F)ccc(NS(=O)(=O)N%10CC[C@@H](F)C%10)c9F)c8c7)cn6)CC5)CC4)ccc3C2=O)C(=O)N1` (stereo partly drawn) [Compound 46, (3R)-N-[3-(5-{2-[4-({4-[2-(2,6-dioxopiperidin-3-yl)-1-oxo-2,3-dihydro-1H-isoindol-5-yl]piperidin-1-yl}methyl)piperidin-1-yl]pyrimidin-5-yl}-1H-pyrrolo[2,3-b]pyridine-3-carbonyl)-2,4-difluorophenyl]-3-fluoropyrrolidine-1-sulfonamide], for which, at BRAF V600E, the DC50 lay in the range of 5 to 50 nM and the Dmax fell in the range of 35 to 70%. On BRAF G466V, the DC50 is below 1 nM and the Dmax was above 70%.
Turning to `O=C1CCC(N2Cc3cc(N4CC5(CC(CN6CCCc7cc(-c8cnc9[nH]cc(C(=O)c%10c(F)ccc(NS(=O)(=O)N%11CC[C@@H](F)C%11)c%10F)c9c8)ccc76)C5)C4)ccc3C2=O)C(=O)N1` (stereo partly drawn) [Compound 47, (3R)-N-(3-{5-[1-({2-[2-(2,6-dioxopiperidin-3-yl)-1-oxo-2,3-dihydro-1H-isoindol-5-yl]-2-azaspiro[3.3]heptan-6-yl}methyl)-1,2,3,4-tetrahydroquinolin-6-yl]-1H-pyrrolo[2,3-b]pyridine-3-carbonyl}-2,4-difluorophenyl)-3-fluoropyrrolidine-1-sulfonamide], the DC50 on BRAF V600E was above 500 nM. For the same compound, at BRAF G466V, the DC50 lay in the range of 10 to 30 nM and the Dmax is 35 to 70%.
For the compound `O=C1CC[C@@H](NC(=O)c2ccc(C3CCN(CC4CCN(c5ccc(-c6cnc7[nH]cc(C(=O)c8c(F)ccc(NS(=O)(=O)N9CC[C@@H](F)C9)c8F)c7c6)cc5)CC4)CC3)cc2F)C(=O)N1` [Compound 48, 4-(1-{[1-(4-{3-[2,6-difluoro-3-({[(3R)-3-fluoropyrrolidin-1-yl]sulfonyl}amino)benzoyl]-1H-pyrrolo[2,3-b]pyridin-5-yl}phenyl)piperidin-4-yl]methyl}piperidin-4-yl)-N-[(3R)-2,6-dioxopiperidin-3-yl]-2-fluorobenzamide], on BRAF V600E, the DC50 was in the range of 50 to 500 nM and the Dmax was below 35%. Besides, at BRAF G466V, the DC50 is 1 to 10 nM and the Dmax is below 35%.
For `O=C1CCC(N2Cc3cc(C4CCN(CCCc5ccc(-c6cnc7[nH]cc(C(=O)c8c(F)ccc(NS(=O)(=O)N9CC[C@@H](F)C9)c8F)c7c6)cc5)CC4)ccc3C2=O)C(=O)N1` (stereo partly drawn) [Compound 49, (3R)-N-(3-{5-[4-(3-{4-[2-(2,6-dioxopiperidin-3-yl)-1-oxo-2,3-dihydro-1H-isoindol-5-yl]piperidin-1-yl}propyl)phenyl]-1H-pyrrolo[2,3-b]pyridine-3-carbonyl}-2,4-difluorophenyl)-3-fluoropyrrolidine-1-sulfonamide], on BRAF V600E, the DC50 fell in the range of 5 to 50 nM and the Dmax is 35 to 70%. In addition, on BRAF G466V, the DC50 was below 1 nM and the Dmax lay in the range of 35 to 70%.
`O=C1CCC(N2Cc3cc(N4CC5(CN(CCOc6ccc(-c7cnc8[nH]cc(C(=O)c9c(F)ccc(NS(=O)(=O)N%10CC[C@@H](F)C%10)c9F)c8c7)cc6)C5)C4)ccc3C2=O)C(=O)N1` (stereo partly drawn) [Compound 50, (3R)-N-(3-{5-[4-(2-{6-[2-(2,6-dioxopiperidin-3-yl)-1-oxo-2,3-dihydro-1H-isoindol-5-yl]-2,6-diazaspiro[3.3]heptan-2-yl}ethoxy)phenyl]-1H-pyrrolo[2,3-b]pyridine-3-carbonyl}-2,4-difluorophenyl)-3-fluoropyrrolidine-1-sulfonamide]: at BRAF V600E, the DC50 lay in the range of 5 to 50 nM and the Dmax lay in the range of 35 to 70%. Further, on BRAF G466V, the DC50 was below 1 nM and the Dmax was above 70%.
On the same counts, the results for `C[C@@]12CN(CC3CCN(c4ccc5c(c4)CN([C@H]4CCC(=O)NC4=O)C5=O)CC3)C[C@@H]1CN(c1ccc(-c3cnc4[nH]cc(C(=O)c5c(F)ccc(NS(=O)(=O)N6CC[C@@H](F)C6)c5F)c4c3)cc1)C2` [Compound 51, (3R)-N-[3-(5-{4-[(3aS,6aR)-5-[(1-{2-[(3S)-2,6-dioxopiperidin-3-yl]-1-oxo-2,3-dihydro-1H-isoindol-5-yl}piperidin-4-yl)methyl]-3a-methyl-octahydropyrrolo[3,4-c]pyrrol-2-yl]phenyl}-1H-pyrrolo[2,3-b]pyridine-3-carbonyl)-2,4-difluorophenyl]-3-fluoropyrrolidine-1-sulfonamide] are 50 to 500 nM, 35 to 70%, 1 to 10 nM and 35 to 70%.
On the same counts, the results for `C[C@@]12CN(CC3CCN(c4ccc5c(c4)CN([C@@H]4CCC(=O)NC4=O)C5=O)CC3)C[C@@H]1CN(c1ccc(-c3cnc4[nH]cc(C(=O)c5c(F)ccc(NS(=O)(=O)N6CC[C@@H](F)C6)c5F)c4c3)cc1)C2` [Compound 52, (3R)-N-[3-(5-{4-[(3aS,6aR)-5-[(1-{2-[(3R)-2,6-dioxopiperidin-3-yl]-1-oxo-2,3-dihydro-1H-isoindol-5-yl}piperidin-4-yl)methyl]-3a-methyl-octahydropyrrolo[3,4-c]pyrrol-2-yl]phenyl}-1H-pyrrolo[2,3-b]pyridine-3-carbonyl)-2,4-difluorophenyl]-3-fluoropyrrolidine-1-sulfonamide] are 50 to 500 nM, below 35%, 1 to 10 nM and 35 to 70%.
Taken in the same sequence, the figures for `C[C@@H]1CN(c2ccc(-c3cnc4[nH]cc(C(=O)c5c(F)ccc(NS(=O)(=O)N6CC[C@@H](F)C6)c5F)c4c3)cc2)C[C@H](C)N1CC1CN(c2ccc3c(c2)CN(C2CCC(=O)NC2=O)C3=O)C1` (stereo partly drawn) [Compound 53, (3R)-N-[3-(5-{4-[(3R,5S)-4-({1-[2-(2,6-dioxopiperidin-3-yl)-1-oxo-2,3-dihydro-1H-isoindol-5-yl]azetidin-3-yl}methyl)-3,5-dimethylpiperazin-1-yl]phenyl}-1H-pyrrolo[2,3-b]pyridine-3-carbonyl)-2,4-difluorophenyl]-3-fluoropyrrolidine-1-sulfonamide] were 5 to 50 nM, 35 to 70%, below 1 nM and above 70%.
